According to patent publication US20050288369A1, “Novel n-hydroxy thiourea, urea and amide compounds and the pharmaceutical compositions comprising the same” (priority 2002, published 2005):

Legend:
[1] = biological target: T1, vanilloid receptor-1 (VR1) (Rattus norvegicus, UniProt O35433); assay: [3H]RTX competition binding assay, VR1-expressing CHO cells; settings: displacement of bound [3H]RTX; mean±SEM, 3 experiments
T1 construct: expressed in transfected cells; host or cells: Chinese Hamster Ovary cells (CHO, ATCC CCL-61), Tet-off inducible expression
Description: The binding affinity activity of the target compounds for vanilloid receptor-1 was measured by an in vitro receptor binding affinity assay. In the receptor binding assay, the compounds were evaluated for their ability to displace bound [^3H]RTX from the receptor. The results are expressed in terms of Ki values (mean±SEM, 3 experiments) which represent the concentration of the non-radioactive ligand that displaces half of the bound labeled RTX.
The VR receptor binding affinity activity of the inventive compounds was measured by using Chinese Hamster Ovary (CHO, ATCC, No. CCL-61) cell whose cDNA of VR1 (pUHG102 VR1 plasmid) was transfected, which can control the expression of VR1 according to the presence of tetracycline and Tetracycline on/off system (pTet off regulatory plasmid, Clontech. Inc., USA) that the expression of VR1 is induced by removing tetracycline from the medium. […] The cells were cultured after removing tetracycline prior to 48 hours. The tetracycline free culture medium was seeded at the bottom of T75 flask, incubated to the extent that its density reaches at 90%, and washed once with PBS buffer solution. The cells were collected by using saline solution containing 5 mM EDTA and subjected to centrifugation slightly to obtain precipitates, further, which had been kept at the temperature of −20° C. before use.
Experiments were designed to assess inhibition of specific [^3H]RTX binding to membranes by non-radioactive compounds. The binding assay mixture containing [^3H]RTX ([…]), various concentrations of competitive binding substances, 0.25 mg/ml of BSA (Cohn fraction V), 5×10^4 ˜5×10^5 numbers of VR1 and the expression cell, was admixed with saline solution containing 450 μl of Ca^2+ and Mg^2+ and […] of BSA. Non-specific binding assay was measured after mixing 100 nM of non-radioactive RTX thereto. The reaction mixture was treated for 60 min at 37° C. and the reaction was quenched by cooling over ice. RTX bound to the membrane of VR1 was subjected to centrifugation with maximum velocity for 15 minutes to precipitate its membrane residue, which results in separating from non-binding RTX. The tips of tube containing above precipitate was cut off and the amount of bound radioisotope was determined by scintillation counter (LS6500, Beckman-Coulter, USA). The measurement of binding was determined in triplicate in each experiment, and each experiment was repeated at least two times. Binding data were analyzed by fitting to the Hill equation and the Ki (equilibrium binding parameter) index, the Bmax (maximum binding parameter) index, and the cooperativity index etc., were determined by using origin 6.0 program (Origin, MicroCal Co., USA).
An initial compound was dissolved in DMSO (dimethyl sulfoxide) and diluted with saline solution containing Ca^2+ and […], and […] of BSA.

[2] = biological target: T2, VR1 (Rattus norvegicus, UniProt O35433); assay: 45Ca influx test in CHO cells expressing VR1, antagonistic activity against 50 nM capsaicin; type: cell-based; settings: 45Ca uptake stimulated with 50 nM capsaicin
T2 construct: expressed in transfected cells; host or cells: Chinese Hamster Ovary cells (CHO, ATCC CCL-61), Tet-off inducible expression
Description: (§1) The ^45Ca Influx test by using CHO cells of the inventive compounds was measured by using Chinese Hamster Ovary (CHO, ATCC, No. CCL-61) cell whose cDNA of VR1 (pUHG102 VR1 plasmid) was transfected, which can control the expression of VR1 according to the presence of tetracycline and Tetracycline on/off system (pTet off regulatory plasmid, Clontech. Inc., USA) that the expression of VR1 is induced by removing tetracycline from the medium.
(§2) The CHO cells were poured onto 24 well plates to the extent that its density reaches at 30% and incubated for 24 hours at 37° C. The culture medium was exchanged to tetracycline free medium to induce the expression of VR1 and tested after 36 hours.
(§3) Together with 0.25 mg/ml BSA (Sigma A2153, USA), 1 Ci/ml ^45Ca(5-30 Ci/g used, ICN. Co., 62005 RT, U.S.A.), the test samples with increasing concentrations were added to each well. At the quenching moment of the incubation with ^45Ca, the cultured cells were removed from the medium, washed three times with cool PBS buffer solution containing 1.8 mM CaCl2 and 400 μl of RIPA buffer solution (50 mM Tris pH 7.4; 150 mM sodium chloride; 0.1% SDS; 1% sodium deoxycholate), was added in each well to homogenize the cells. The plates were stirred for 20 minutes slowly and 300 μl of cell lysate was transferred to scintillation vials from each wells. The radioactivity was determined by scintillation counter.
(§4) The data were assessed by determining four wells per each data point in each experiment and analyzed in computer by being transformed into Hill equation. The experiments were determined in triplicate in each sample comprising inventive compounds and control groups.
In order to determine the antagonistic activity, ^45Ca^2+-uptake stimulating-mixture was added with 50 nM capsaicin and the antagonistic activity was determined by the method for the agonistic activity. In case that 10 μM a certain compound cannot change the capsaicin-inducing activity, the compound shall be regarded as an […].

[3] = test system: Male ICR mice; assay: Acetic acid-induced writhing test; type: in vivo; settings: for ED50: Mus musculus, ip, i.p. 30 mins before 1.2% acetic acid i.p., 50% reduction of the number of writhes; for analgesic effect compared with thiourea compounds JYL-827 and 1433: writhing test
Description: The acetic acid-induced writhing test for testing the analgesic activity of inventive compounds prepared from above Examples was performed by the procedure described in the literature (Lee, J. W., Bioorganic & Medicinal Chemistry, pp 1713-1720, 2001).
Male ICR mice having its mean body weight of 25 g (CD-1; Biogenomics Co. Korea) were reared in lighting controlled environment (12 hrs on/12 hrs off) maintaining with temperatures at 22±2° C. and humidity at 50±5% and allowed to eat a diet and to drink tap water ad lib.
Mice were fasted overnight prior to testing and adopted to the environment.
0.3 ml of acetic acid solution (1.2%) was administrated in the mice intraperitoneally and then the mice were put into the transparent acryl box (15×15×15 cm). 5 minutes later, the number of abdominal constrictions was counted for 20 minutes. Each group consisting of ten mice was pretreated with test compounds or solvent (0.2 ml, i.p.) 30 mins before the injection of acetic acid. Test compounds were dissolved in the mixture of ethanol/Tween-80/saline ([…]) or cremophor EL/DMSO/d-water ([…]).
Analgesic activity of each drug was determined at several different concentrations.
The index of analgesic activity (eff) was defined as below Empirical formula 1. Analgesic activity (eff)=100−{(No. of abdominal constriction of test group/No. of abdominal constriction of control group)×100} [Empirical formula 1]
Analgesic activity was expressed as the reduction in the number of abdominal constrictions, of control animals (vehicle-pretreated mice) and animals pretreated with test compounds.

[4] = biological target: T2, VR1; assay: 45Ca influx test in CHO cells expressing VR1, agonistic activity; type: cell-based; settings: 45Ca uptake
Description: The ^45Ca Influx test by using CHO cells expressing VR1 was performed by the procedure described in the literature (Lee, J. W., Bioorganic & Medicinal Chemistry, pp 1713-1720, 2001).
as §1, §2
as §3, with “In radioactive ^45Ca uptake experiment, The cells were incubated in […] of DMEM medium (Dulbecco's modified Eagles medium: Gibco-BRL, 31600-083) containing free of serum and 1.8 mM CaCl2 for 10 minutes at 37*C. Together” for “Together”
as §4

T1 sequence (O35433 whole entry): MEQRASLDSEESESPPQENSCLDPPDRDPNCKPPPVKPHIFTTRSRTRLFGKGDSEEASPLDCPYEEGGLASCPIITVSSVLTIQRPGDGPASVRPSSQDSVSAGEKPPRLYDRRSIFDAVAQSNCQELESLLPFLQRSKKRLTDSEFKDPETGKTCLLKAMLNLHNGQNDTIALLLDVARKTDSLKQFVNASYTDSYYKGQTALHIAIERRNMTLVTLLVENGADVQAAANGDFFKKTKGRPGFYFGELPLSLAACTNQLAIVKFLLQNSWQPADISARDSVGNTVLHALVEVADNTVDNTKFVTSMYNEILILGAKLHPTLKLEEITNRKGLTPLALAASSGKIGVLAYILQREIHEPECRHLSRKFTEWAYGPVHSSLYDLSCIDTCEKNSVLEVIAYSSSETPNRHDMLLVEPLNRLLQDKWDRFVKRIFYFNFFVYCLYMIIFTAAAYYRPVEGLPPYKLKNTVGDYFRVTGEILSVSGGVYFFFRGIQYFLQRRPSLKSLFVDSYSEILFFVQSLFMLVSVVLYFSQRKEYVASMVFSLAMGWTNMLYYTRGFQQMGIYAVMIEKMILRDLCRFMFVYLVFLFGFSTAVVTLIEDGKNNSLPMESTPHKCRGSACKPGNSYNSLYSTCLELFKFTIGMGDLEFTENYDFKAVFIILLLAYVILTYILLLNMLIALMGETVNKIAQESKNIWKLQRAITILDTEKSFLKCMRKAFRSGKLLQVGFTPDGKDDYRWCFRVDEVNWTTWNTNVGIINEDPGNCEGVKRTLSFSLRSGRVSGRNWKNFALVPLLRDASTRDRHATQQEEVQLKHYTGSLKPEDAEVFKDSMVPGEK
T2 sequence (O35433 whole entry): as above

Row | SMILES | Ki [1] [nM] | IC50 [2] [nM] | melting point [°C] | EC50 [4] [nM] | ED50 [3] [µg/kg] | analgesic effect compared with thiourea compounds JYL-827 and 1433 [3] | analgesic effect, fold stronger than that of Ketorolac ([3]; ratio of writhing test ED50 values)
1 | CC(C)(C)c1ccc(CN(O)C(=S)NCc2ccc(NS(C)(=O)=O)cc2)cc1 [Compound 28, N-(4-tert-butylbenzyl)-N-hydroxy-N-[4-(methylsulfonylamino)benzyl]thiourea] | 1090 | 470 | 137 |  | 1560 |  | 
2 | COc1cc(CNC(=S)N(O)Cc2ccc(C(C)(C)C)cc2)ccc1NS(C)(=O)=O [Compound 29, N-(4-tert-butylbenzyl)-N-hydroxy-N-[3-methoxy-4-(methylsulfonylamino)benzyl]thiourea] |  |  | 112.5 to 115 | 2010 | 0.103 |  | 
3 | CC(C)(C)c1ccc(CN(O)C(=S)NCc2ccc(NS(C)(=O)=O)c(F)c2)cc1 [Compound 30, N-(4-tert-butylbenzyl)-N-hydroxy-N-[3-fluoro-4-(methylsulfonylamino)benzyl]thiourea] | 802 |  | 124 to 126 | > 7060 | 1.07 |  | 
4 | Cc1ccc(CC(COC(=O)C(C)(C)C)CN(O)C(=S)NCc2ccc(NS(C)(=O)=O)cc2)cc1C (centres unmarked) [Compound 35, N-[2-(3,4-dimethylbenzyl)-3-(pivaloyloxy)propyl]-N-hydroxy-N-[4-(methylsulfonylamino)benzyl]thiourea] | 1040 | 212 |  | 1230 | 2.6 | stronger analgesic effect | 
5 | Cc1ccc(CC(COC(=O)C(C)(C)C)CN(O)C(=S)NCc2ccc(NS(C)(=O)=O)c(F)c2)cc1C (centres unmarked) [Compound 37, N-[2-(3,4-dimethylbenzyl)-3-(pivaloyloxy)propyl]-N-hydroxy-N-[3-fluoro-4-(methylsulfonylamino)benzyl]thiourea] | 212 | 93.7 |  |  |  | stronger analgesic effect | 43,000 fold

Now from value to compound, other results behind:

Row | Ki [1] [nM] | IC50 [2] [nM] | melting point [°C] | EC50 [4] [nM] | SMILES | ED50 [3] [µg/kg] | analgesic effect compared with thiourea compounds JYL-827 and 1433 [3] | analgesic effect, fold stronger than that of Ketorolac ([3]; ratio of writhing test ED50 values)
6 | 6380 | 6590 | 161 to 163 | 3500 | CC(C)(C)c1ccc(CN(O)C(=O)Cc2ccc(NS(C)(=O)=O)cc2)cc1 [Compound 45, N-(4-tert-butylbenzyl)-N-hydroxy-[4-(methylsulfonylamino)phenyl] acetamide] |  |  | 
7 | 4260 | 465 | 124 |  | CC(C)(C)c1ccc(CNC(=S)N(O)Cc2ccc(NS(C)(=O)=O)cc2)cc1 [Compound 60, N-(4-tert-butylbenzyl)-N-hydroxy-N-[4-(methylsulfonylamino)benzyl]thiourea] |  |  | 
8 |  |  | 125 | 1060 | CC(C)(C)c1ccc(CNC(=O)N(O)Cc2ccc(NS(C)(=O)=O)cc2)cc1 [Compound 62, N-(4-tert-butylbenzyl)-N-hydroxy-N-[4-(methylsulfonylamino)benzyl]urea] |  |  | 
